Results on two compounds are retold here after publication PMC11191402, “High-Affinity NIR-Fluorescent Inhibitors for Tumor Imaging via Carbonic Anhydrase IX” (Bioconjugate Chemistry, 2024).

The target in one series is T1, human recombinant CAII (Homo sapiens, UniProt P00918).
T1 construct: made in house; host or cells: bacterial expression system
Also noted: method as in PMID 36271018. The following applies: FTSA, 37 °C, pH 7.0; cited from earlier work.

Another series deals with T2, human recombinant CAIII (Homo sapiens, UniProt P07451).
T2 construct: made in house; host or cells: bacterial expression system
Also noted: method as in PMID 36271018. The following applies: FTSA, 37 °C, pH 7.0; cited from earlier work.

A further series concerns the target T3, human recombinant CAIV (Homo sapiens, UniProt P22748).
T3 construct: Most isozymes were truncated, and only the catalytic domains of the proteins were produced; made in house; host or cells: bacterial expression system
Also noted: method as in PMID 36271018. To be noted: FTSA, 37 °C, pH 7.0; cited from earlier work.

Another series deals with T4, human recombinant CAVA (Homo sapiens, UniProt P35218).
T4 construct: Most isozymes were truncated, and only the catalytic domains of the proteins were produced; made in house; host or cells: bacterial expression system
Also noted: method as in PMID 36271018. The following applies: FTSA, 37 °C, pH 7.0; cited from earlier work.

A further series deals with T5, human recombinant CAVB (Homo sapiens, UniProt Q9Y2D0).
T5 construct: Most isozymes were truncated, and only the catalytic domains of the proteins were produced; made in house; host or cells: bacterial expression system
Also noted: method as in PMID 36271018. The following applies: FTSA, 37 °C, pH 7.0; cited from earlier work.

Another series concerns the target T6, human recombinant CAVI (Homo sapiens, UniProt P23280).
T6 construct: Most isozymes were truncated, and only the catalytic domains of the proteins were produced; made in house; host or cells: bacterial expression system
Also noted: method as in PMID 36271018. To be noted: FTSA, 37 °C, pH 7.0; cited from earlier work.

For a further series, the target named is T7, human recombinant CAVII (Homo sapiens, UniProt P43166).
T7 construct: made in house; host or cells: bacterial expression system
Also noted: method as in PMID 36271018. The following applies: FTSA, 37 °C, pH 7.0; cited from earlier work.

The target of another series is T8, human recombinant CAXII (Homo sapiens, UniProt O43570).
T8 construct: Most isozymes were truncated, and only the catalytic domains of the proteins were produced; made in house; host or cells: bacterial expression system
Also noted: method as in PMID 36271018. The following applies: FTSA, 37 °C, pH 7.0; cited from earlier work.

The target in another series is T9, human recombinant CAXIV (Homo sapiens, UniProt Q9ULX7).
T9 construct: Most isozymes were truncated, and only the catalytic domains of the proteins were produced; made in house; host or cells: bacterial expression system
Also noted: method as in PMID 36271018. The following applies: FTSA, 37 °C, pH 7.0; cited from earlier work.

For series [1], the target named is T10, CAIX expressed on cell membranes of HeLa cells (Homo sapiens, UniProt Q16790).
T10 construct: an open reading frame for the full-length CAIX protein (1–459 amino acids) without a tag; expressed in transfected cells; host or cells: HeLa cells transfected with pCMV-CAIX (TurboFect), normoxia
Nature of the series: Fluorescence microscopy staining of live HeLa cells. The following applies: 250 nM compound; pCMV-CAIX-transfected cells, normoxia. The format is cell-based. An excerpt: Live HeLa cell culture was used for visualization of the NIR-fluorescent compound binding to CAIX expressed on cell membranes (Figures 3 and S2). […] Hypoxic conditions were insufficient for CAIX-specific fluorescence detection (Figure S3). Transfected cells expressed 10-fold more CAIX protein than cells grown under hypoxia, as determined by dosing the fluorescein-containing compound GZ19-32. […] We should point out that microphotographs in Figures 3 and S2 were taken at different exposure times to ensure good visualization quality. Nevertheless, all four compounds were suitable for direct visualization of CAIX expressed on transfected cell membranes.
For visualization of CAIX in live cells, HeLa cells were seeded in 12-well plates, and the next day they were transfected with the pCMV-CAIX plasmid to induce CAIX expression under normoxia. The TurboFect Transfection Reagent (Thermo Fisher) was used for this purpose according to manufacturer’s directions. Cells were stained and visualized next day after transfection. Nontransfected cells, grown under normoxia, were used as a control. For the induction of CAIX expression without transfection, cells were cultured under hypoxia for 3 days.
For cell imaging, live cells were incubated with the recombinant monoclonal antibody to CAIX (M75) (Absolute Antibody, #Ab00414–1.1) in the CO2 incubator for 30 min. The antibody stock solution (1 mg/mL) was used at a dilution of 1:150 in FluoroBright (FB)(Thermo Fisher) medium. After washing (3 × 5 min with DMEM in RT, gentle rock), cells were incubated with secondary Alexa Fluor 488 goat antimouse antibodies (2 mg/mL, Thermo Fisher), at a dilution of 1:200 in FB, in a CO2 incubator for 30 min. After washing (3 × 5 min with DMEM in RT and 2 × 1 min with PBS), cells were incubated with NIR-fluorescent inhibitors ([…] in PBS) in a CO2 incubator for 5–8 min. After washing (2 min + 2 × 1 min with PBS), PBS was replaced by FB, and 15 μL of NucBlue Live Cell Stain ReadyProbes reagent (Thermo Fisher) was added per well. After 5 min, cells were observed and photographed using an automated fluorescence microscope EVOS FL Auto (Thermo Fisher).

T2 sequence (P07451 whole entry): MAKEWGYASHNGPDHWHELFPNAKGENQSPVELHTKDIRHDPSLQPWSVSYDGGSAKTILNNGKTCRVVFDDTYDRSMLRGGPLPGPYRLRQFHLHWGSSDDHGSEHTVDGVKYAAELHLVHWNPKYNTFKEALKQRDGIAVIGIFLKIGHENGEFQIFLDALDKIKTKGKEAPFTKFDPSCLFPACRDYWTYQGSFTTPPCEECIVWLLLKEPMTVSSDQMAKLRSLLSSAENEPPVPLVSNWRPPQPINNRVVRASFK
T8 sequence (O43570 30-289 limits assumed): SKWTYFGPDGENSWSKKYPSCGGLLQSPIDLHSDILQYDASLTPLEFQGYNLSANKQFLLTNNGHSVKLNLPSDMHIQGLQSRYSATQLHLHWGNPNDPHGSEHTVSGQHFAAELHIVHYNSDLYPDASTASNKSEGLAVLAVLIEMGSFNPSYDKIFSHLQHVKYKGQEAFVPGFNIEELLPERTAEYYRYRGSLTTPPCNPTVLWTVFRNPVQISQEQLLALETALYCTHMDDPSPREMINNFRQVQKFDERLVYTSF
T7 sequence (P43166 whole entry): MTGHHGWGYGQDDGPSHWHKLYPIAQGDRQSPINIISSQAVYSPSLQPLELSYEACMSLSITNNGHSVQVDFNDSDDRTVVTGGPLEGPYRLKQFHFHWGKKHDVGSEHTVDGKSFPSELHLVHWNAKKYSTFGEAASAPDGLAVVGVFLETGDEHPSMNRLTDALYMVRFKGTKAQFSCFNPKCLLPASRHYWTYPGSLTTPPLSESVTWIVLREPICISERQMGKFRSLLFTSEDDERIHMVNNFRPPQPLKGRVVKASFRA
T5 sequence (Q9Y2D0 37-296 limits assumed): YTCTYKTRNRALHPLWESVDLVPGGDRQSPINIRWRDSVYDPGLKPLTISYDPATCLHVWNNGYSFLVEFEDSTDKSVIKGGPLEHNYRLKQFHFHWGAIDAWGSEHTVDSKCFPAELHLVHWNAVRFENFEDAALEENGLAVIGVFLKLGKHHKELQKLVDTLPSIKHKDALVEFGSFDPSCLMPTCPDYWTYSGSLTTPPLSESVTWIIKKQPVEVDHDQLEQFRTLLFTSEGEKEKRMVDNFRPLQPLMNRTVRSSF
T6 sequence (P23280 21-278 limits assumed): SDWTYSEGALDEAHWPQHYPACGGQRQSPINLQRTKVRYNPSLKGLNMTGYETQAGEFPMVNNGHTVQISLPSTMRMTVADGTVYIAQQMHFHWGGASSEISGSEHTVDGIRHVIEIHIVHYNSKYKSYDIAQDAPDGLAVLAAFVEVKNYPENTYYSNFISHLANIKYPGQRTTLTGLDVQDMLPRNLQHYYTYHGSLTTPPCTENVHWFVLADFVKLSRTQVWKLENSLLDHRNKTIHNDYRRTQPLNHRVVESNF
T3 sequence (P22748 21-285 limits assumed): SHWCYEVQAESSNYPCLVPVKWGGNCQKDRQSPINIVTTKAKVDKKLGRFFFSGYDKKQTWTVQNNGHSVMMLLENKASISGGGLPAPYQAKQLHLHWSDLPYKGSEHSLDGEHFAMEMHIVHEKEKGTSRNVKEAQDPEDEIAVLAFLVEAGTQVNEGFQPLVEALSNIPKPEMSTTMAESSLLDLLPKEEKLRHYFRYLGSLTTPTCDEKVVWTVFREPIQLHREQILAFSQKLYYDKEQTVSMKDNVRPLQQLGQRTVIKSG
T9 sequence (Q9ULX7 20-278 limits assumed): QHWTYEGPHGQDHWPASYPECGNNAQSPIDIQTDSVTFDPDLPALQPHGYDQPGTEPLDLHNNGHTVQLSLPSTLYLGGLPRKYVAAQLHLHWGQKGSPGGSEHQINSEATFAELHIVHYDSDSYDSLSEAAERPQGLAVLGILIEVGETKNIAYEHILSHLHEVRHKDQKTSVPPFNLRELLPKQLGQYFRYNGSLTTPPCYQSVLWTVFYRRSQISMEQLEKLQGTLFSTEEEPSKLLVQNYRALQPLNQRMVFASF
T4 sequence (P35218 39-296 limits assumed): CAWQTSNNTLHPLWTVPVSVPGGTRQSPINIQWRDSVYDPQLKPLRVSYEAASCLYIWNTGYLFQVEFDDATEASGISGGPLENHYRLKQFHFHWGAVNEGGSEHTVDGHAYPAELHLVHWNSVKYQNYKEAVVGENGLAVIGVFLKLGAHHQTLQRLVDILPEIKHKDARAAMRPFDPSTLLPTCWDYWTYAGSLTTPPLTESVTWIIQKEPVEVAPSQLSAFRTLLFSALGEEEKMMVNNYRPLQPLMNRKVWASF

As usually defined, the melting point is the temperature, or range, at which the solid turns liquid. Usually Kd stands for a measure of binding affinity in units of concentration. In turn, `NS(=O)(=O)c1c(F)c(F)c(S(=O)(=O)CCC(=O)O)c(NC2CCCCCCC2)c1F` [GZ18-23, 3-((2-(Cyclooctylamino)-3,5,6-trifluoro-4-sulfamoylphenyl)sulfonyl)propanoic Acid] came in with a melting point of 143 to 144 °C. For the same compound, the Kd at human recombinant CAII is 0.2 µM. In addition, the Kd at human recombinant CAIII was at least 200 µM. Moreover, the Kd on human recombinant CAIV is 0.1 µM. The equilibrium dissociation constant (Kd) at human recombinant CAVA is 10 µM. Besides, the Kd on human recombinant CAVB is 0.2 µM. Besides, the Kd on human recombinant CAVI was 0.1 µM. Besides, the Kd at human recombinant CAVII was 0.04 µM. In addition, the Kd at human recombinant CAXII was 0.0014 µM. Further, the Kd on human recombinant CAXIV is 0.003 µM.
`CC1(C)C(/C=C/C2=C(Oc3ccc(CCC(=O)O)cc3)C(=C/C=C3\N(CCCCS(=O)(=O)[O-])c4ccccc4C3(C)C)/CCC2)=[N+](CCCCS(=O)(=O)[O-])c2ccccc21.[Na+]` [GZ21-20, Sodium 4-((Z)-2-((E)-2-(2-(4-(2-Carboxyethyl)phenoxy)-3-((E)-2-(3,3-dimethyl-1-(4-sulfonatobutyl)-3H-indol-1-ium-2-yl)vinyl)cyclohex-2-en-1-ylidene)ethylidene)-3,3-dimethylindolin-1-yl)butane-1-sulfonate] showed a melting point of 225 to 228 °C. Besides, the “staining of HeLa cells (NIR fluorescence microscopy)” value in [1] is “no visual response on transfected cells”.
